Data from patent US7541364B2, “Pyridomorphinans, pyridazinomorphinans and use thereof” (priority 2003, dated 2009).
Counter-ions that a name gives are not always drawn.

Tests used:
[1] = biological target: T1, opioid δ receptor (Rattus norvegicus, UniProt P33533); experiment: Opioid δ receptor binding, [3H]DADLE displacement in rat brain membranes; details: for Ki: displacement of [3H]DADLE (1.3-2.0 nM), rat brain membranes, 100 nM DAMGO to block μ sites, read-out: Ki (nM) ± SEM δ
T1 construct: Rat membranes are prepared each day using a partially thawed frozen rat brain; from tissue; host or cells: rat brain membranes

[2] = system: mice; experiment: 55° C. tail-flick antinociception test in mice; details: for A50: icv, mouse tail-flick, at time of peak drug effect; for naloxone sensitivity: naloxone 10 mg/kg ip, -10 min, yes = greater than 80% reduction in the antinociceptive effect
Experimental: Analgesic Testing and Assessment of Tolerance Development. The analgesic activity of selected ligands is tested in mice using the 55° C. tail-flick test as previously described. (See Wells et al., supra.) The test compounds are administered by the intracerbroventricular (icv) route. […] To determine whether the analgesic activity of the tested compounds is mediated through opioid receptors, the blockade of antinociceptive activity by pretreatment with naloxone is carried out. The analgesic activity was considered as naloxone sensitive if greater than 80% reduction in the antinociceptive response is observed.
Antinociceptive Studies. Male ICR mice (Harlan) are used for all evaluations. Mice are housed in a temperature and humidity controlled vivarium on a 12:12 h light:dark cycle with unlimited access to food and water prior to the formal procedures. […] The dihydrochloride salt of 7h is dissolved in water and injected in a volume of 5 μL. All other compounds are dissolved in 100% DMSO and injected in a volume of 5 μL. Antinociceptive assays are performed at various times after injection.
Percent antinociception is calculated using the formula: % MPE (maximal possible effect)=100×(test−control)/(cutoff−control) where control is the predrug observation, test is the postdrug observation, and cutoff is the maximal length of stimulus allowed (10 s for 55° C. tail-flick). Antinociceptive A50 values and 95% confidence intervals are determined using linear regression software (FlashCalc). Opioid activity of the test compounds are assessed by pretreating animals with naloxone (10 mg/kg ip, −10 min) followed by an icv injection of an approximate A90 dose of test compound. […] Antinociception is assessed in the 55° C. tail-flick test at 10, 20 and 30 min. A positive response to a fixed dose of naloxone is indicated when greater than 80% reduction in the antinociceptive effect of the agonist is observed.

[3] = biological target: T2, μ receptor (Cavia porcellus, UniProt A0ACM8Q262)
[4] = biological target: T2, μ receptor; experiment: biochemical; set-up: dose or concentration left out as unconfirmed; details: read-out: agonist activity Emax % μ
[5] = biological target: opioid μ receptor (Rattus norvegicus, UniProt P33535)
[6] = biological target: opioid κ receptor (Cavia porcellus, UniProt P41144)
[7] = biological target: δ receptor (Cavia porcellus, UniProt A0A286XTF2); experiment: biochemical; set-up: Emax: dose or concentration left out as unconfirmed
Chain of δ receptor (A0A286XTF2 1-366): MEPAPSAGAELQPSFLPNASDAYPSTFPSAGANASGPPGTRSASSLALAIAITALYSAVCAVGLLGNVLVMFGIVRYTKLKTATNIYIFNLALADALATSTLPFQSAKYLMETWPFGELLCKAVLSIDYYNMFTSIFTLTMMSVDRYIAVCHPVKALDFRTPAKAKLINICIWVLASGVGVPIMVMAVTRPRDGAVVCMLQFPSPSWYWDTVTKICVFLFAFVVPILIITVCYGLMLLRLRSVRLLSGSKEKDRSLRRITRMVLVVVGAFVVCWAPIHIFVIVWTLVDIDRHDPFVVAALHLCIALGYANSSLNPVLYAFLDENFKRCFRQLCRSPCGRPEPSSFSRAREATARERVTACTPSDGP

T1 sequence (P33533 whole entry): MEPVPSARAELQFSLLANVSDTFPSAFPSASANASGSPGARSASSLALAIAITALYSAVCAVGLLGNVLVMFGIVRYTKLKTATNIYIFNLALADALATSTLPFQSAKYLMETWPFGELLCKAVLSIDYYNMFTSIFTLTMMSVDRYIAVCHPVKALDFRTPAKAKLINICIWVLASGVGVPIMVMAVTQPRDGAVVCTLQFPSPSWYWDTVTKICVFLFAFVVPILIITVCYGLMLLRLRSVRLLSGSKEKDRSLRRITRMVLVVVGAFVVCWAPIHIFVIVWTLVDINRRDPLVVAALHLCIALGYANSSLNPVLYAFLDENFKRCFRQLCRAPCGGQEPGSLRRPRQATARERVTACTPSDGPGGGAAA
T2 sequence (A0ACM8Q262 1-400): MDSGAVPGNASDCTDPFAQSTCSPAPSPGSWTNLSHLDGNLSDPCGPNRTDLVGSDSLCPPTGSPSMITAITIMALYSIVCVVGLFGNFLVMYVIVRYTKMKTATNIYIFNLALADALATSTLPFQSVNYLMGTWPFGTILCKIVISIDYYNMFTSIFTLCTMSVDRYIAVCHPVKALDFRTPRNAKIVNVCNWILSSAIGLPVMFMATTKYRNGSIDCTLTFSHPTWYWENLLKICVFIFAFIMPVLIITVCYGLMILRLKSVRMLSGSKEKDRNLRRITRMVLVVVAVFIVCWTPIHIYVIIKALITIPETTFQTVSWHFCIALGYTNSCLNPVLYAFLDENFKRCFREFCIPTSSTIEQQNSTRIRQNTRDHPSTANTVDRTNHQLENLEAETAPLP
Chain of opioid κ receptor (P41144 whole entry): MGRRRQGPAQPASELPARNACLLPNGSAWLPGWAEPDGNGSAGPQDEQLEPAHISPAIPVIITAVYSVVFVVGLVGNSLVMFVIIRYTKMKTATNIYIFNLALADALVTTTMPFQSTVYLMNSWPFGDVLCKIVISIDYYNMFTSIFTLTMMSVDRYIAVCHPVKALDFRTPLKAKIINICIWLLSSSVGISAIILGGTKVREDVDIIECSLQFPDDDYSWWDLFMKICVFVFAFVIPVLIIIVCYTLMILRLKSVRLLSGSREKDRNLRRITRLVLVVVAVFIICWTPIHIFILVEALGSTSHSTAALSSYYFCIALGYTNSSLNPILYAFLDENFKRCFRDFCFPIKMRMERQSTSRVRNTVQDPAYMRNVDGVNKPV
Chain of opioid μ receptor (P33535 whole entry): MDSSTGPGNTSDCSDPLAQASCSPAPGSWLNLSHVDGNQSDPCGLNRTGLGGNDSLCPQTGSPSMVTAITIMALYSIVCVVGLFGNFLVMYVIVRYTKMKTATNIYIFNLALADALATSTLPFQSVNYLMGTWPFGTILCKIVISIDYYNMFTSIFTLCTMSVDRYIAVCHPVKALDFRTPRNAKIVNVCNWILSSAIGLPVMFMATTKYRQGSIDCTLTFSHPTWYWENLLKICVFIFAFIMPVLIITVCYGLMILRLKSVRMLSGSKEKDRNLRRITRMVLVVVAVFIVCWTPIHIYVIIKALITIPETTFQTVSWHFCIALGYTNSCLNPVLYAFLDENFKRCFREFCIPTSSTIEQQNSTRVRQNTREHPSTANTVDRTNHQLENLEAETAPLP

CN1CC[C@]23c4c5ccc(O)c4O[C@H]2c2ncc(-c4ccc(Cl)cc4)cc2C[C@H]3[C@H]1C5 (as salt: salt) [7h, 5′-(4-Chlorophenyl)-6,7-didehydro-4,5α-epoxy-3-hydroxy-17-methylpyrido[2′,3′:6,7]morphinan]
melting point: 276 to 278 °C (dec.)

COc1ccc2c3c1O[C@H]1c4ncccc4C[C@@]4(O)[C@@H](C2)N(C)CC[C@]314 [7m, 6,7-Didehydro-4,5α-epoxy-14-hydroxy-3-methoxy-17-methylpyrido[2′,3′:6,7]morphinan]
Ki [1]: 143 ± 9 nM
melting point: 210 to 212 °C

C=CCN1CC[C@]23c4c5ccc(O)c4O[C@H]2c2ncc(-c4ccc(Cl)cc4)cc2C[C@@]3(O)[C@H]1C5 [7a, 17-(Allyl)-6,7-didehydro-3,14-dihydroxy-4,5α-epoxy-5′-(4-chlorophenyl)pyrido[2′,3′:6,7]morphinan]
reduction in affinity at the δ site compared to 2c ([1]; N-allyl vs N-CPM): 4 fold
Ki [1]: 8.2 ± 0.07 nM
melting point: 168 to 172 °C

COc1ccc2c3c1O[C@H]1c4ncc(-c5ccc(Cl)cc5)cc4C[C@H]4[C@@H](C2)N(CC2CC2)CC[C@]314 [7q, 5′-(4-chlorophenyl)-17-(cyclopropylmethyl)-6,7-didehydro-4,5α-epoxy-3-methoxypyrido[2′,3′:6,7]morphinan]
Ki [1]: 41 ± 3 nM
melting point: 196 to 198 °C

CN1CC[C@]23c4c5ccc(O)c4O[C@H]2[C@@H](O)C=C[C@H]3[C@H]1C5 [Morphine, reference compound]
A50 [2]: 4.2 nmol
naloxone sensitivity [2]: yes

COc1ccc2c3c1O[C@H]1c4ncc(-c5ccc(Cl)cc5)cc4C[C@@]4(O)[C@@H](C2)N(C)CC[C@]314 [7o, 5′-(4-chlorophenyl)-6,7-didehydro-4,5α-epoxy-14-hydroxy-3-methoxy-17-methyl-pyrido[2′,3′:6,7]morphinan]
Ki [1]: 21 ± 2 nM
melting point: 112 to 114 °C

C[C@@H](NC(=O)[C@@H](N)Cc1ccc(O)cc1)C(=O)NCC(=O)N(C)[C@@H](Cc1ccccc1)C(=O)NCCO [DAMGO, reference compound]
EC50 ([3]; read-out: agonist activity EC50 (nM ± SD) μ, δ and κ sites blocked with TIPP (1 μM) and nor-BNI (6 nM)): 414 nM
Emax [4]: 100%

CN1CC[C@]23c4c5ccc(O)c4O[C@H]2c2ncccc2C[C@@]3(O)[C@H]1C5 [7b, 6,7-Didehydro-3,14-dihydroxy-4,5α-epoxy-17-methylpyrido[2′,3′:6,7]morphinan]
Ki [1]: 18 ± 1.4 nM
selectivity ratio μ/δ ([5]; ratio of binding Ki values): 0.4
Ki ([5]; read-out: Ki (nM) ± SEM μ, displacement of [3H]DAMGO (1.4-3.0 nM), rat brain membranes): 7.9 ± 0.23 nM
selectivity ratio κ/δ ([6]; ratio of binding Ki values): 15
Ki ([6]; read-out: Ki (nM) ± SEM κ, displacement of [3H]U69,593 (1.2-[…]), guinea pig brain membranes): 264 ± 18 nM
A50 [2]: 67.1 nmol
naloxone sensitivity [2]: yes
Ki ([3]; read-out: antagonist activity apparent Ki (nM ± SD) μ, inhibition of DAMGO (10 μM) stimulated [35S]GTP-γ-S binding): > 1000 nM
Emax [4]: 40 ± 2%
Ki [7]: > 1000 nM
melting point: > 230 °C

C=CCN1C[C@H](C)N([C@H](c2ccc(C(=O)N(CC)CC)cc2)c2cccc(OC)c2)C[C@H]1C [SNC80, reference compound]
EC50 [7]: 758 ± 131 nM
Emax ([7]; read-out: agonist activity Emax % δ): 100%
